Five molecules from PubChem BioAssay (NCI) can be followed below.

Common to all, as to experiment: NCI tumour cell line growth inhibition, 48 h
Assay [1] deals with MDA-MB-231 breast.
The test system of assay [2] is UO-31 renal.
The subject of assay [3] is UACC-62 melanoma.
In assay [4] the test system is HCT-15 colon.
The test system of assay [5] is SF-268 CNS.
Assay [6] has as its system MCF7 breast.
Assay [7] deals with A498 renal.
Assay [8] deals with K-562 leukemia.
Assay [9] deals with SF-295 CNS.
Assay [10] concerns OVCAR-3 ovarian.

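Method: 48-hour compound exposure of cells in 96-well plates, five concentrations, linear interpolation of endpoints. GI50 marks 50% less growth. TGI denotes the concentration required for complete inhibition of growth.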 Where only a bound is given, the exact number is not on record here.

For the molecule `Cc1nc2[nH]ncn2c(=O)c1CCO`, the TGI in assay [1], in assay [2], in assay [3], in assay [4], in assay [5] and in assay [6] was over 10 µM each time. Moreover, the TGI in assay [7] and in [8] was over 10 µM each time.
On to `COc1ccc(C2C3CCCC(C3=O)C(c3ccc(OC)cc3)N2N=O)cc1` (stereo not given), for which the TGI in assay [2] is over 100 µM; in assay [3], 97.4 µM; in assay [9] it was 45.8 µM; in [4] it was over 100 µM; in [10], 20 µM; in [5], over 100 µM. In addition, the TGI in assay [6] is 38.2 µM; in [7], 25.4 µM; in [8], over 66 µM.
Regarding `O=C(NCCNc1nccc(-c2c(-c3cccc(O)c3)nc3sccn23)n1)c1ccccc1`, the GI50 in assay [1] is 7.05 µM; in assay [2], 12.2 µM; in [3], 0.211 µM; in [9], 12.9 µM; in [4] it was 18.8 µM; in assay [10], 12.3 µM. For the same molecule, the GI50 in assay [5] is 15.5 µM; in assay [6], 3.24 µM; in assay [7], 3.68 µM; in [8] it was 9.11 µM. The TGI came to 31.5 µM in assay [1]; 88.7 µM in assay [2]; 1.37 µM in [3]; 38 µM in assay [9]; 62.2 µM in [4]; 64.8 µM in assay [10]. For the same molecule, the TGI was 87 µM in assay [5], 14.9 µM in [6], 19.3 µM in [7] and over 100 µM in [8].
In the case of `COc1ccc(N2C(=O)C3c4[nH]c5ccc(F)cc5c4C4CCC(C(C)(C)C)CC4C3C2=O)cc1` (stereo not given), the TGI in assay [1], in assay [2], in [3], in assay [9], in assay [4] and in assay [10] was over 10 µM throughout. Also, the TGI in [5], in assay [6] and in assay [7] was over 10 µM throughout.
For the molecule `CCOC(=O)Cc1cnc(NC(NC(=O)CC)(C(F)(F)F)C(F)(F)F)s1`, the TGI in assay [1], in assay [2], in assay [3], in assay [4], in assay [10] and in assay [5] was over 100 µM in each case. Further, the TGI in assay [6], in [7] and in assay [8] was over 100 µM each time.
